Results: US20100055145A1, “STENT COATINGS FOR REDUCING LATE STENT THROMBOSIS” (Biosensors International Group, priority 2008, published 2010)

How the values were obtained:
[1] = system: proliferating animal and human smooth muscle cells; assay: Growth inhibition of smooth muscle cells in culture; assay type: cell-based; conditions: compared with sirolimus
From the text: Like sirolimus and everolimus, BIOLIMUS A9 is rapidly absorbed in tissues and is able to reversibly bind to immunophilins (cytoplasmic proteins) found inside living cells.

[2] = Solubility of BIOLIMUS A9; assay type: physicochemical
[3] = Partition coefficient (log P), reverse phase HPLC

CCOCCO[C@@H]1CC[C@@H](C[C@@H](C)[C@@H]2CC(=O)[C@H](C)/C=C(\C)[C@@H](O)[C@@H](OC)C(=O)[C@H](C)C[C@H](C)/C=C/C=C/C=C(\C)[C@@H](OC)C[C@@H]3CC[C@@H](C)[C@@](O)(O3)C(=O)C(=O)N3CCCC[C@H]3C(=O)O2)C[C@H]1OC [BIOLIMUS A9, 42-O-(2-ethoxyethyl)rapamycin]
potency of growth inhibition of proliferating smooth muscle cells [1]: potency similar to that of sirolimus
peak blood levels (after stent implantation): 3 ng/mL
peak blood level lower than therapeutic levels of oral sirolimus or everolimus following organ transplant (in vivo, po): 20 fold
Solubility: 25% ethanol in water ([2]; 25% ethanol in water): Practically insoluble
Solubility: ethanol ([2]; ethanol): Very soluble
Solubility: ethyl acetate ([2]; ethyl acetate): Very soluble
Solubility: methanol ([2]; methanol): Very soluble
Solubility: water (independent of pH) ([2]; water (independent of pH)): Practically insoluble
Partition Coefficient (E Log Poct): Log Pn-octanol ([3]; As measured by reverse phase HPLC): Log Pn-octanol = 7.63
partition coefficient (log P) ([3]; pH 7.40, estimated): 7.63
